Where “and” joins values, the source holds several entries; their conditions need not be identical. Identical values can stand only once.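 Test compounds were applied to cells in 96-well plates for 48 hours at 5 doses. Here, GI50 denotes the concentration required for 50% inhibition of growth.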 Calls of active or inactive are those of the source. No stated cut-off is given here; in the data, active = GI50 up to about 1.1 µM and inactive = higher.
What was measured:
Assay in all cases: inhibition of tumour cell growth, NCI panel, 48 h
[1] = system: 786-0
[2] = system: A549
[3] = system: ACHN
[4] = system: CAKI-1
[5] = system: CCRF-CEM
[6] = system: COLO 205
[7] = system: DLD-1
[8] = system: DMS-114
[9] = system: DMS-273
[10] = system: EKVX
[11] = system: HCC 2998
[12] = system: HCT-116
[13] = system: HCT-15
[14] = system: HL-60
[15] = system: HOP-62
[16] = system: HOP-92
[17] = system: HT-29
[18] = system: IGROV-1
[19] = system: K562
[20] = system: KM-20L2
[21] = system: KM12
[22] = system: LOX IMVI
[23] = system: LXFL 529
[24] = system: M14
[25] = system: M19-MEL
[26] = system: Malme-3M
[27] = system: NCI-H226
[28] = system: NCI-H23
[29] = system: NCI-H460
[30] = system: NCI-H522
[31] = system: OVCAR-3
[32] = system: OVCAR-4
[33] = system: OVCAR-5
[34] = system: OVCAR-8
[35] = system: RPMI-8226
[36] = system: RXF 393
[37] = system: SF-268
[38] = system: SF-295
[39] = system: SF-539
[40] = system: SK-MEL-28
[41] = system: SK-MEL-2
[42] = system: SK-MEL-5
[43] = system: SK-OV-3
[44] = system: SN12C
[45] = system: SNB-19
[46] = system: SNB-75
[47] = system: SNB-78
[48] = system: SR
[49] = system: SW-620
[50] = system: TK-10
[51] = system: U-251
[52] = system: UACC-257
[53] = system: UACC-62
[54] = system: UO-31
[55] = system: XF498
[56] = system: BT-549
[57] = system: HOP-18
[58] = system: MOLT-4
[59] = system: A498

COc1cc(C[P+](c2ccccc2)(c2ccccc2)c2ccccc2)cc(OC)c1OC
GI50 [1]: > 100 µM (inactive)
GI50 [2]: > 100 µM (inactive)
GI50 [3]: > 100 µM (inactive)
GI50 [4]: > 100 µM (inactive)
GI50 [5]: > 100 µM (inactive)
GI50 [6]: > 100 µM (inactive)
GI50 [7]: > 100 µM (inactive)
GI50 [8]: > 100 µM (inactive)
GI50 [9]: > 100 µM (inactive)
GI50 [10]: > 100 µM (inactive)
GI50 [11]: > 100 µM (inactive)
GI50 [12]: > 100 µM (inactive)
GI50 [13]: > 100 µM
GI50 [14]: > 100 µM (inactive)
GI50 [15]: > 100 µM (inactive)
GI50 [16]: > 100 µM (inactive)
GI50 [17]: > 100 µM (inactive)
GI50 [18]: > 100 µM (inactive)
GI50 [19]: > 100 µM (inactive)
GI50 [20]: > 100 µM (inactive)
GI50 [21]: > 100 µM (inactive)
GI50 [22]: > 100 µM (inactive)
GI50 [23]: > 100 µM (inactive)
GI50 [24]: > 100 µM (inactive)
GI50 [25]: > 100 µM (inactive)
GI50 [26]: > 100 µM (inactive)
GI50 [27]: > 100 µM (inactive)
GI50 [28]: > 100 µM (inactive)
GI50 [29]: > 100 µM (inactive)
GI50 [30]: > 100 µM (inactive)
GI50 [31]: > 100 µM (inactive)
GI50 [32]: > 100 µM (inactive)
GI50 [33]: > 100 µM (inactive)
GI50 [34]: > 100 µM (inactive)
GI50 [35]: > 100 µM (inactive)
GI50 [36]: > 100 µM (inactive)
GI50 [37]: > 100 µM (inactive)
GI50 [38]: > 100 µM (inactive)
GI50 [39]: > 100 µM (inactive)
GI50 [40]: > 100 µM (inactive)
GI50 [41]: > 100 µM (inactive)
GI50 [42]: > 100 µM (inactive)
GI50 [43]: > 100 µM (inactive)
GI50 [44]: > 100 µM (inactive)
GI50 [45]: > 100 µM (inactive)
GI50 [46]: > 100 µM (inactive)
GI50 [47]: > 100 µM (inactive)
GI50 [48]: > 100 µM (inactive)
GI50 [49]: > 100 µM (inactive)
GI50 [50]: > 100 µM (inactive)
GI50 [51]: > 100 µM (inactive)
GI50 [52]: > 100 µM (inactive)
GI50 [53]: > 100 µM (inactive)
GI50 [54]: > 100 µM (inactive)
GI50 [55]: > 100 µM (inactive)

Oc1cccc2cccnc12 [OXYQUINOLINE]
GI50 [56]: > 80.2 µM (inactive)
GI50 [7]: 1.47 µM (inactive)
GI50 [9]: 2.53 µM (inactive)
GI50 [14]: 251 nM (active) and 457 nM (active)
GI50 [57]: 14.8 µM (inactive)
GI50 [18]: 3.14 µM (inactive) and 4.5 µM (inactive)
GI50 [20]: 1.38 µM (inactive)
GI50 [23]: 0.605 µM (active)
GI50 [35]: 0.578 µM (active)
GI50 [42]: 8.69 µM (inactive) and 4.93 µM (inactive)
GI50 [48]: 0.453 µM (active)

Nc1c(C(=O)N/N=C/c2ccccc2)sc(=S)n1-c1ccccc1
GI50 [2]: > 100 µM (inactive)
GI50 [3]: > 100 µM (inactive)
GI50 [5]: > 100 µM (inactive)
GI50 [6]: > 100 µM (inactive)
GI50 [7]: > 100 µM (inactive)
GI50 [11]: > 100 µM (inactive)
GI50 [12]: > 100 µM (inactive)
GI50 [14]: > 100 µM (inactive)
GI50 [57]: > 100 µM (inactive)
GI50 [15]: > 100 µM (inactive)
GI50 [16]: > 100 µM (inactive)
GI50 [17]: > 100 µM (inactive)
GI50 [18]: > 100 µM (inactive)
GI50 [19]: 3.38 µM (inactive)
GI50 [21]: > 100 µM (inactive)
GI50 [23]: > 100 µM (inactive)
GI50 [25]: > 100 µM (inactive)
GI50 [58]: > 100 µM (inactive)
GI50 [27]: > 100 µM (inactive)
GI50 [28]: > 100 µM (inactive)
GI50 [29]: > 100 µM (inactive)
GI50 [30]: > 100 µM (inactive)
GI50 [31]: > 100 µM (inactive)
GI50 [34]: > 100 µM (inactive)
GI50 [35]: > 100 µM (inactive)
GI50 [37]: > 100 µM (inactive)
GI50 [38]: > 100 µM (inactive)
GI50 [39]: 70 µM (inactive)
GI50 [40]: > 100 µM (inactive)
GI50 [42]: > 100 µM (inactive)
GI50 [43]: > 100 µM (inactive)
GI50 [45]: > 100 µM (inactive)
GI50 [46]: 8.71 µM (inactive)
GI50 [48]: > 100 µM (inactive)
GI50 [49]: > 100 µM (inactive)
GI50 [50]: > 100 µM (inactive)
GI50 [51]: > 100 µM (inactive)
GI50 [52]: > 100 µM (inactive)
GI50 [53]: > 100 µM (inactive)
GI50 [54]: > 100 µM (inactive)

COC(=O)/C(=N\NC(N)=S)C(C#N)c1ccccc1 (stereo not given)
GI50 [1]: > 100 µM (inactive)
GI50 [59]: > 100 µM (inactive)
GI50 [2]: > 100 µM (inactive)
GI50 [3]: > 100 µM (inactive)
GI50 [5]: > 100 µM (inactive)
GI50 [6]: > 100 µM (inactive)
GI50 [7]: > 100 µM (inactive)
GI50 [8]: > 100 µM (inactive)
GI50 [10]: > 100 µM (inactive)
GI50 [11]: > 100 µM (inactive)
GI50 [12]: > 100 µM (inactive)
GI50 [13]: > 100 µM
GI50 [14]: > 100 µM (inactive)
GI50 [15]: > 100 µM (inactive)
GI50 [16]: > 100 µM (inactive)
GI50 [17]: > 100 µM (inactive)
GI50 [18]: > 100 µM (inactive)
GI50 [19]: > 100 µM (inactive)
GI50 [20]: > 100 µM (inactive)
GI50 [21]: > 100 µM (inactive)
GI50 [22]: > 100 µM (inactive)
GI50 [23]: > 100 µM (inactive)
GI50 [24]: > 100 µM (inactive)
GI50 [25]: > 100 µM (inactive)
GI50 [58]: > 100 µM (inactive)
GI50 [26]: > 100 µM (inactive)
GI50 [27]: > 100 µM (inactive)
GI50 [28]: > 100 µM (inactive)
GI50 [29]: > 100 µM (inactive)
GI50 [30]: > 100 µM (inactive)
GI50 [31]: > 100 µM (inactive)
GI50 [32]: > 100 µM (inactive)
GI50 [33]: > 100 µM (inactive)
GI50 [34]: > 100 µM (inactive)
GI50 [35]: > 100 µM (inactive)
GI50 [36]: > 100 µM (inactive)
GI50 [37]: > 100 µM (inactive)
GI50 [38]: > 100 µM (inactive)
GI50 [39]: > 100 µM (inactive)
GI50 [40]: > 100 µM (inactive)
GI50 [41]: > 100 µM (inactive)
GI50 [42]: > 100 µM (inactive)
GI50 [43]: > 100 µM (inactive)
GI50 [44]: > 100 µM (inactive)
GI50 [45]: > 100 µM (inactive)
GI50 [46]: 19 µM (inactive)
GI50 [47]: > 100 µM (inactive)
GI50 [49]: > 100 µM (inactive)
GI50 [50]: > 100 µM (inactive)
GI50 [51]: > 100 µM (inactive)
GI50 [52]: > 100 µM (inactive)
GI50 [53]: > 100 µM (inactive)
GI50 [54]: > 100 µM (inactive)
GI50 [55]: > 100 µM (inactive)

Reference: ChEMBL document CHEMBL1201862, “PubChem BioAssay data set” (2004)
